Data set [1] relates to HeLa. The data set can be described thus: Cytotoxicity against human HeLa cells assessed as reduction in cell viability incubated for 48 hrs by MTT assay. In kind it is functional, cell-based. A general note: Tetrazolium dyes change colour on reduction, which living cells bring about.
Data set [2] deals with HCT-116. The data set can be described thus: Cytotoxicity against human HCT-116 cells assessed as reduction in cell viability incubated for 48 hrs by MTT assay. In kind it is functional, cell-based. The note with it: HCT-116, 48 h.
Data set [3] has as its system HepG2. The data set can be described thus: Cytotoxicity against human HepG2 cells assessed as reduction in cell viability incubated for 48 hrs by MTT assay. In kind it is functional, cell-based. The conditions noted are these: HepG2, 48 h.
The subject of data set [4] is RAW264.7. The data set can be described thus: Anti-inflammatory activity in mouse RAW264.7 cells assessed as inhibition of LPS-induced NO production incubated for 24 hrs by Griess reagent based assay. In kind it is functional, cell-based. The conditions noted are these: RAW264.7, 24 h. Background: Griess reagent forms a coloured azo dye with nitrite.
Data set [5] concerns RAW264.7. The experiment in a line: Cytotoxicity against mouse RAW264.7 cells after 24 hrs by MTT assay. The note with it: raw264.7, 24 h. In kind it is cell-based.

The IC50 is the concentration that inhibits the measured activity by half.

`CC(C)CC(=O)O[C@H]1[C@@H]2[C@H](C)C(=O)O[C@@H]2C[C@@H](C)[C@@H]2C=CC(=O)[C@]21C`: the half-inhibitory concentration (IC50) in data set [1] was 5.5 µM; in data set [2], 7.2 µM; in data set [3], greater than 10 µM; in data set [4], 1.7 µM.
`C/C=C(\C)C(=O)O[C@H]1[C@@H]2[C@H](C)C(=O)O[C@@H]2C[C@@H](C)[C@@H]2C=CC(=O)[C@]21C`: the IC50 in data set [1], in data set [2], in data set [3] and in data set [4] was greater than 10 µM in each case.
For `C=C(C)C(=O)O[C@@H]1[C@@H]2[C@H](C[C@H](C)C3=CCC(=O)[C@@]31C)OC(=O)[C@@H]2C`, the half-maximal inhibitory concentration (IC50) in data set [1], in data set [2] and in data set [3] was greater than 10 µM throughout.
For `C=C1C(=O)O[C@@H]2C[C@@H](C)[C@@H]3[C@@H](OC)CC(=O)[C@@]3(C)[C@@H](OC(=O)/C(C)=C\C)[C@H]12`, the IC50 in data set [1], in data set [2] and in data set [3] was greater than 10 µM in each case.
With `C=C1C(=O)O[C@H]2C[C@@H](C)[C@@H]3[C@@H](OC(=O)C=C(C)C)C[C@@H](OC(=O)/C(C)=C\C)[C@@]3(C)C[C@H]12`, the half-maximal inhibitory concentration (IC50) in data set [1] was greater than 10 µM; in data set [2], 9.4 µM; in data set [3] it was 3.5 µM.
As to `C=C(C)C(=O)O[C@@H]1C[C@H](OC(=O)C(C)C)[C@H]2[C@H](C)C[C@@H]3OC(=O)C(=C)[C@H]3C[C@@]21C`, the half-maximal inhibitory concentration (IC50) in data set [1] was greater than 10 µM; in data set [2] it was greater than 10 µM; in data set [3], greater than 10 µM; in data set [4], 3.9 µM.
For `CC(C)=CC(=O)O[C@H]1[C@@H]2[C@H](C)C(=O)O[C@@H]2C[C@@H](C)C2=CCC(=O)[C@]21C`, the IC50 in data set [1], in data set [2] and in data set [3] was greater than 10 µM throughout.
For `C=C1C(=O)O[C@H]2C[C@@H](C)[C@@H]3[C@@H](OC(=O)/C(C)=C/C)C[C@@H](OC(=O)/C(C)=C\C)[C@@]3(C)C[C@H]12`, the IC50 was 7.8 µM in data set [1], 6.6 µM in data set [2] and 4.1 µM in data set [3].
The like results for `C=C1C(=O)O[C@@H]2C[C@@H](C)[C@@H]3C=CC(=O)[C@@]3(C)[C@@H](OC(=O)C=C(C)C)[C@H]12` were, in that order, 2.6 µM, 0.8 µM and 1.5 µM.
Turning to `C=C1C(=O)O[C@H]2C[C@@H](C)[C@@H]3[C@@H](OC(=O)C(C)C)C[C@@H](OC(=O)C=C(C)C)[C@@]3(C)C[C@H]12`, the IC50 in data set [1] is greater than 10 µM; in data set [2], 8.1 µM; in data set [3], 6.5 µM.
Consider `C=C1C(=O)O[C@H]2C[C@@H](C)[C@@H]3[C@@H](OC(=O)CC(C)C)C[C@@H](OC(=O)CC(C)C)[C@@]3(C)C[C@H]12`, for which the 50% inhibitory concentration (IC50) is greater than 10 µM in data set [1], 9.9 µM in data set [2], greater than 10 µM in data set [3] and 0.1 µM in data set [4].
`C=C1C(=O)O[C@H]2C[C@@H](C)[C@@H]3[C@@H](OC(=O)C(C)C)C[C@@H](OC(=O)CC(C)C)[C@@]3(C)C[C@H]12`: the IC50 was greater than 10 µM in data set [1], greater than 10 µM in data set [2], greater than 10 µM in data set [3] and 0.2 µM in data set [4].
As for `C=C1C(=O)O[C@@H]2C[C@@H](C)[C@@H]3C=CC(=O)[C@@]3(C)[C@@H](OC(=O)/C(C)=C\C)[C@H]12`, the IC50 in data set [1] was 0.8 µM; in data set [2], 2.9 µM; in data set [3], 1.1 µM.
With `C=C1C(=O)O[C@H]2C[C@@H](C)[C@@H]3[C@@H](OC(=O)C(C)C)C[C@@H](OC(=O)/C(C)=C/C)[C@@]3(C)C[C@H]12`, the IC50 in data set [1] is greater than 10 µM; in data set [2], greater than 10 µM; in data set [3], 8.7 µM.
For the compound `CC(C)=CC(=O)O[C@H]1[C@@H]2[C@H](C)C(=O)O[C@@H]2C[C@@H](C)[C@@H]2CCC(=O)[C@]21C`, the half-maximal inhibitory concentration (IC50) in data set [1], in data set [2] and in data set [3] was greater than 10 µM each time.
For the compound `C=C1C(=O)O[C@@H]2C[C@@H](C)[C@@H]3C(OC(=O)/C(C)=C\C)=C[C@@]4(C)O[C@@]34C[C@H]12`, the concentration for half-maximal inhibition (IC50) in data set [1], in data set [2] and in data set [3] was greater than 10 µM in each case.
Regarding `C=C(C)C(=O)O[C@H]1[C@@H]2[C@H](C)C(=O)O[C@@H]2C[C@@H](C)[C@@H]2CCC(=O)[C@]21C`, the 50% inhibitory concentration (IC50) in data set [1], in data set [2] and in data set [3] was greater than 10 µM throughout.
Regarding `C/C=C(/C)C(=O)O[C@H]1[C@@H]2[C@H](C)C(=O)O[C@@H]2C[C@@H](C)[C@@H]2[C@H](OC)CC(=O)[C@]21C`, the IC50 in data set [1], in data set [2], in data set [3] and in data set [4] was greater than 10 µM throughout.
On to `C/C=C(/C)C(=O)O[C@H]1[C@@H]2[C@H](C)C(=O)O[C@@H]2C[C@@H](C)[C@@H]2CCC(=O)[C@]21C`, for which the concentration for half-maximal inhibition (IC50) in data set [1], in data set [2], in data set [3] and in data set [4] was greater than 10 µM each time.
Consider `C=C1C(=O)O[C@H]2C[C@@H](C)[C@@H]3[C@@H](OC(=O)C(C)C)C[C@@H](OC(=O)C(C)C)[C@@]3(C)C[C@H]12`, for which the IC50 was greater than 10 µM in data set [1], greater than 10 µM in data set [2] and 6.5 µM in data set [3].
Regarding `C/C=C(/C)C(=O)O[C@H]1[C@@H]2[C@H](C)C(=O)O[C@@H]2C[C@@H](C)[C@@H]2[C@@H](OCC)CC(=O)[C@]21C`, the IC50 in data set [1], in data set [2], in data set [3] and in data set [4] was greater than 10 µM in each case.
As to `CCC(C)C(=O)O[C@H]1[C@@H]2[C@H](C)C(=O)O[C@@H]2C[C@@H](C)[C@@H]2C=CC(=O)[C@]21C` (stereo not given in full), the half-inhibitory concentration (IC50) in data set [1] is 2.4 µM; in data set [2] it was 7.3 µM; in data set [3], greater than 10 µM; in data set [4] it was 2.4 µM.
On to `C=C1C(=O)O[C@H]2C[C@@H](C)[C@@H]3[C@@H](OC(=O)/C(C)=C\C)C[C@@H](OC(=O)CC(C)C)[C@@]3(C)C[C@H]12`, for which the 50% inhibitory concentration (IC50) was 9.4 µM in data set [1], 5.2 µM in data set [2], 2.9 µM in data set [3] and greater than 10 µM in data set [4].
Taken in the same sequence, the figures for `C=C1C(=O)O[C@@H]2C[C@@H](C)[C@@H]3C=CC(=O)[C@@]3(C)[C@@H](OC(=O)CC(C)C)[C@H]12` were 2 µM, 3.3 µM, 2.6 µM and 0.2 µM.
Regarding `C/C=C(/C)C(=O)O[C@H]1[C@@H]2[C@H](C)C(=O)O[C@@H]2C[C@@H](C)[C@@H]2C=CC(=O)[C@]21C` [BREVILIN A], the IC50 in data set [1] is 9.2 µM; in data set [2] it was greater than 10 µM; in data set [3], greater than 10 µM. Further, the Activity entry in data set [5] was “Toxic”.
For `C=C1C(=O)O[C@@H]2C[C@@H](C)[C@@H]3C=CC(=O)[C@@]3(C)[C@@H](OC(=O)C(C)C)[C@H]12` [HELENALINISOBUTYRATE], the IC50 amounted to 1.4 µM in data set [1], 0.4 µM in data set [2] and 1.8 µM in data set [3].
